Assays:
Type in all cases: in vivo, mouse
[1] = test system: orthotopic XP258 human tumor xenografts; experiment: Acute response of XP258 tumors by MSOT; details: XP258, four hours post-treatment, 250 mg/kg IP
Experimental: For the multispectral optoacoustic tomography (MSOT), an iThera InVision 256-TF device with seven wavelengths (700, 730, 760, 780, 800, 820, and 875 nm) was used. Mice were shaved and depilated around the tumor region. The anesthetized mouse (1–2% isoflurane) was placed in the imaging chamber (34 °C) for 10 min to reach thermal equilibrium before imaging a single slice showing the largest cross-section of the tumor. An oxygen gas breathing challenge was performed to assess the dynamic changes in blood oxygenation. Images were generated using ViewMSOT version 4.2 with a back projection-based reconstruction algorithm followed by built-in fluence correction. Oxy- and deoxyhemoglobin were resolved using a linear regression approach.
Oxygen saturation (sO2) maps were analyzed using MATLAB 2022b (MathWorks Inc., Natick, MA, USA), and the images were visualized with Fiji. The percentage of hemoglobin saturation (sO2) was calculated as follows:[…]
Blank pixels represent areas lacking a detectable hemoglobin signal. The average sO2^MSOT was calculated pixelwise in each ROI for the air and oxygen breathing periods as sO2^MSOT (Air) and sO2^MSOT (O2), and the response to the oxygen gas challenge was as follows:∆sO2 = sO2 (O2) − sO2 (Air)(2)

[2] = Blood pressure assessment (CODA system)
Experimental: Blood pressure was measured using a CODA system (Kent Scientific, Torrington, CT, USA) on 5 adult male BALB/c mice. Mice were anesthetized with 2% isoflurane in oxygen at 1 dm^3/min and placed on the CODA IR heating pad with a feedback rectal temperature probe and nosecone to maintain anesthesia. An occlusion cuff and VPR cuff were placed on the tail. The baseline measurement was recorded over 30 min, then OXi8007 (250 mg/kg or 325 mg/kg) was administered IP and the blood pressure measurement resumed for 45 min. As positive and negative controls, hydralazine (1 mg/kg) or saline, respectively, were injected IP.

[3] = test system: orthotopic Renca-luc tumors; experiment: Long-term therapy with OXi8007 and/or cabozantinib
Experimental: OXi8007, synthesized by the Pinney Laboratory using published procedures, was dissolved in saline, verified to be in the pH range 7.3 to 7.5, and dosed at 250 mg/kg (IP). Cabozantinib (in PEG400 and ultrapure H2O (Milli-Q)) was administered at 3 mg/kg by oral gavage. Anti-PD-1 (10 mg/kg, Bio X Cell, Lebanon, NH, USA) and anti-CTLA-4 (5 mg/kg, Bio X Cell, Lebanon, NH) solutions were administered (IP) on the day before OXi8007 […].
We evaluated the longitudinal effects of OXi8007 alone and in combination with drugs currently favored for treating kidney cancer. For Renca-luc tumor-bearing mice, BLI was performed at least once a week to estimate tumor size, and mice were weighed weekly to adjust the dose as needed. Two treatment cohorts examined syngeneic orthotopic Renca-luc tumors in male BALB/c mice. Treatment started when the tumors reached about 1 × 10^6 photons/s peak total flux on BLI. The first cohort examined OXi8007 with cabozantinib. Mice were divided into four groups. Mice were assigned to groups as soon as there were sufficient to add the same numbers of animals to each group. The specific assignment was defined using the random number function in Excel. […] The second cohort was treated with CKIs and OXi8007 using four groups: Group 5 (OXi8007 + anti-PD-1 (10 mg/kg) + anti-CTLA-4 (5 mg/kg); n = 4), Group 6 (saline + anti-PD-1+ anti-CTLA-4; n = 3), Group 7 (saline + anti-PD-1; n = 3), and Group 8 (saline + anti-CTLA-4; n = 4). CKI antibodies were administered thrice weekly (M, W, F) for the first two weeks after the first treatment with OXi8007, which was administered twice weekly. […] Initial tumor growth was confirmed by palpation, and the mice were assigned to groups such that the first mouse with a confirmed tumor was assigned to Group 5, next to Group 6, etc., ensuring that all groups had both faster- and slower-growing tumors. […] Tumor size (BLI signal) and mouse body weights were compared using an ANOVA and multiple comparisons at a significance level of p < 0.05. Kaplan–Meier survival curves were compared using a non-parametric log-rank test using SAS software (SAS Institute Inc., SAS Viya for learners 4, Cary, NC, USA).

COc1ccc2c(C(=O)c3cc(OC)c(OC)c(OC)c3)c(-c3ccc(OC)c(OP(=O)(O)O)c3)[nH]c2c1 [OXi8007]
Tumor vascular oxygenation (MSOT) [1]: less well oxygenated and less responsive to the oxygen gas breathing challenge
Duration of temporary elevation in blood pressure ([2]; 250 mg/kg IP): less than 20 min
Diastolic blood pressure after administration ([2]; 250 mg/kg IP, 5 male BALB/c mice, baseline 84 ± 2): 82 mmHg
Mean blood pressure after administration ([2]; 250 mg/kg IP, 5 male BALB/c mice, baseline 94 ± 2): 94 mmHg
Systolic blood pressure after administration ([2]; 250 mg/kg IP, 5 male BALB/c mice, baseline 115 ± 3): 117 mmHg
Effect on mouse blood pressure ([2]; 250 mg/kg IP, systolic, diastolic or mean): minimal effect
Effect on mouse blood pressure ([2]; 325 mg/kg IP): larger transient change
Toxicity in adult mice ([3]; 250 mg/kg IP twice weekly up to 7 weeks): no overt toxicity
Body weight at week 7 versus baseline ([3]; Renca-luc BALB/c mice, 250 mg/kg IP twice weekly): significant loss in body weight
Body weight loss versus pre-treatment baseline ([3]; Renca-luc BALB/c mice, OXi8007 alone): ~ 11%
Tumor growth delay (BLI) ([3]; Renca-luc, versus control): no significant growth delay
Overall survival versus control ([3]; Renca-luc, 250 mg/kg IP twice weekly, log-rank p = 0.053): no overall survival benefit

Reference: publication PMC11898701, “Evaluating Therapeutic Efficacy of the Vascular Disrupting Agent OXi8007 Against Kidney Cancer in Mice” (Cancers, 2025)
